# Reference: article PMC11079024, “Identification of a family of species-selective complex I inhibitors as potential anthelmintics” (Nature Communications, 2024)
# Where two headings read alike, the source gives them in different places.
# Molecular target: C. elegans (N2) complex I (NADH:ubiquinone oxidoreductase) (Caenorhabditis elegans, UniProt P24887+Q93873+Q94360)
# Assay: biochemical
# Type: biochemical
# Details: for activity at 0.0001 µM / activity at 0.0005 µM / activity at 0.001 µM / activity at 0.0025 µM / activity at 0.005 µM / activity at 0.013 µM / activity at 0.025 µM / activity at 0.063 µM / activity at 0.125 µM / activity at 0.313 µM / activity at 0.625 µM / activity at 1.5 µM / activity at 3 µM / activity at 15 µM / activity at 37.5 µM / activity at 75 µM: read-out: C. elegans mitochondrial complex I activity; for Log IC50 C. elegans complex I: log10 of IC50 in µM, C. elegans mitochondria
# Method in brief: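 Mitochondria, 0.2 mg/mL protein, freeze-thawed three times, assayed in 25 mM KPi pH 7.5 with BSA, 80 μM NADH, 60 μM decylubiquinone, 160 μM DCIP, antimycin A and KCN. Rate from initial linear slope of A600 over 15 min. % of solvent control.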
# [1] = in vitro complex I dose response on C. elegans mitochondria, average of at least two biological replicates, fit in R (DRC), read-out: IC50 C. elegans complex I
# [2] = wild-type C. elegans mitochondria, read-out: C. elegans Complex I IC50
# [3] = wild-type (N2) mitochondria, read-out: C. elegans Complex I IC50
# [4] = wild-type C. elegans mitochondria, estimated from fitted dose-response curves, read-out: C. elegans Complex I IC50
# [5] = wild-type C. elegans, individual Rep1-Rep4, read-out: percent in vitro complex I activity relative to solvent control, single replicates
# [6] = wild-type C. elegans, mean of Rep1-4, read-out: percent in vitro complex I activity relative to solvent control, Mean
# Chain of C. elegans (N2) complex I (NADH:ubiquinone oxidoreductase) (Q94360 17-199): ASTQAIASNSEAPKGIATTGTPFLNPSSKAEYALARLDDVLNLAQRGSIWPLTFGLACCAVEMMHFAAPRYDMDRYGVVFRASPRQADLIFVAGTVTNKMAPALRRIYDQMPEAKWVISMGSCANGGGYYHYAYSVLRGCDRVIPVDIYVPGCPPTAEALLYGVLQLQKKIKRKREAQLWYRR
# Chain of C. elegans (N2) complex I (NADH:ubiquinone oxidoreductase) (P24887 whole entry): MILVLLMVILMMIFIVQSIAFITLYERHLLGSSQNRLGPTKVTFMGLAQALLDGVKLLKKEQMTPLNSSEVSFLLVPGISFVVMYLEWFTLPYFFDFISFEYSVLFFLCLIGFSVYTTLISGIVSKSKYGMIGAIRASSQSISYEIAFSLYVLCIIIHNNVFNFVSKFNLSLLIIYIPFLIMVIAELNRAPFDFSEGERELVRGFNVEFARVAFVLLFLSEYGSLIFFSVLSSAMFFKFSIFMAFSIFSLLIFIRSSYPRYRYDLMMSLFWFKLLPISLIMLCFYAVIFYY
# Chain of C. elegans (N2) complex I (NADH:ubiquinone oxidoreductase) (Q93873 31-482): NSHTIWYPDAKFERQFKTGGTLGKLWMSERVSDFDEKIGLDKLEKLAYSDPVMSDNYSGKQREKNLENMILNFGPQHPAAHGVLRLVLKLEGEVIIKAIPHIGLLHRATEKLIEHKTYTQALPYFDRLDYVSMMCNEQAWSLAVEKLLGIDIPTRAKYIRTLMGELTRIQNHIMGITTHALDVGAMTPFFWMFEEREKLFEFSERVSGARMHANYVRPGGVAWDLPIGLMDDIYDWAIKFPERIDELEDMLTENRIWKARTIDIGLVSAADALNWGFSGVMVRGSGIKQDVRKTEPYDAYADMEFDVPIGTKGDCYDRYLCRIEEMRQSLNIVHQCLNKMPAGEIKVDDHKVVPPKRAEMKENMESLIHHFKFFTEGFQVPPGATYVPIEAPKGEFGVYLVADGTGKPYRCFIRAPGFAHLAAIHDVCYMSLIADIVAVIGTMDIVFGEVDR
smiles,measurement,setting,value
CCc1cc(OCCn2cnc3ccccc32)ccc1Cl [Compound 7925288],activity at 0.0001 µM,,89.3%
same,activity at 0.0005 µM,,90.8%
same,activity at 0.001 µM,,94%
same,activity at 0.0025 µM,,90.8%
same,activity at 0.005 µM,,98.8%
same,activity at 0.013 µM,,96.9%
same,activity at 0.025 µM,,96.9%
same,activity at 0.063 µM,,63.2%
same,activity at 0.125 µM,,63.3%
same,activity at 0.313 µM,,77.6%
same,activity at 0.625 µM,,77.6%
same,activity at 1.5 µM,,60.7%
same,activity at 3 µM,,46.8%
same,activity at 15 µM,,16.1%
same,activity at 37.5 µM,,4.53%
same,activity at 75 µM,,2.28%
same,IC50,[1],8090 nM
same,Log IC50 C. elegans complex I,,0.91 µM
same,IC50,[2],8090 nM
Cc1ccc(SCCCCn2cnc3ccccc32)cc1 [Compound 7925333],activity at 0.0001 µM,,91.6%
same,activity at 0.0005 µM,,94.2%
same,activity at 0.001 µM,,101%
same,activity at 0.0025 µM,,95.1%
same,activity at 0.005 µM,,100%
same,activity at 0.013 µM,,91.2%
same,activity at 0.025 µM,,93.7%
same,activity at 0.063 µM,,96.6%
same,activity at 0.125 µM,,81%
same,activity at 0.313 µM,,64.2%
same,activity at 0.625 µM,,65.6%
same,activity at 1.5 µM,,44%
same,activity at 3 µM,,28.6%
same,activity at 15 µM,,10.5%
same,activity at 37.5 µM,,5.81%
same,activity at 75 µM,,7.08%
same,IC50,[1],1040 nM
same,Log IC50 C. elegans complex I,,0.017 µM
same,IC50,[3],1040 nM
same,IC50,[4],1040 nM
Clc1ccc(SCCCCn2cnc3ccccc32)cc1 [Compound 7925515],activity at 0.0001 µM,,90.8%
same,activity at 0.0005 µM,,89.5%
same,activity at 0.001 µM,,93.5%
same,activity at 0.0025 µM,,93.3%
same,activity at 0.005 µM,,91%
same,activity at 0.013 µM,,90.5%
same,activity at 0.025 µM,,86.2%
same,activity at 0.063 µM,,83.9%
same,activity at 0.125 µM,,76.1%
same,activity at 0.313 µM,,69.1%
same,activity at 0.625 µM,,60.1%
same,activity at 1.5 µM,,39.1%
same,activity at 3 µM,,22%
same,activity at 15 µM,,10.5%
same,activity at 37.5 µM,,7.84%
same,activity at 75 µM,,5.86%
same,IC50,[1],950 nM
same,Log IC50 C. elegans complex I,,-0.0223 µM
same,IC50,[3],950 nM
same,IC50,[4],950 nM
Clc1ccccc1OCCCCn1cnc2ccccc21 [Compound 7925804],remaining activity at 0.0001 µM,[5],106%
same,remaining activity at 0.0001 µM,[6],95.7%
same,remaining activity at 0.0005 µM,[5],98.1%
same,remaining activity at 0.0005 µM,[6],95.4%
same,remaining activity at 0.001 µM,"0.001 µM, wild-type C. elegans, mean of Rep1-4, read-out: percent in vitro complex I activity relative to solvent control, Mean",95.9%
same,remaining activity at 0.0025 µM,[5],100%
same,remaining activity at 0.0025 µM,[6],100%
same,remaining activity at 0.005 µM,[5],93.7%
same,remaining activity at 0.005 µM,[6],93.4%
same,remaining activity at 0.013 µM,[5],92.2%
same,remaining activity at 0.013 µM,[6],96.2%
same,remaining activity at 0.025 µM,[5],86.9%
same,remaining activity at 0.025 µM,[6],94.4%
same,remaining activity at 0.063 µM,[5],83.6%
same,remaining activity at 0.063 µM,[6],81.6%
same,remaining activity at 0.125 µM,[5],65.6%
same,remaining activity at 0.125 µM,[6],64.9%
same,remaining activity at 0.313 µM,[5],53.9%
same,remaining activity at 0.313 µM,[6],47.4%
same,remaining activity at 0.625 µM,"0.625 µM, wild-type C. elegans, mean of Rep1-4, read-out: percent in vitro complex I activity relative to solvent control, Mean",32.7%
same,remaining activity at 1.5 µM,"1.5 µM, wild-type C. elegans, mean of Rep1-4, read-out: percent in vitro complex I activity relative to solvent control, Mean",15.5%
same,remaining activity at 3 µM,"3 µM, wild-type C. elegans, mean of Rep1-4, read-out: percent in vitro complex I activity relative to solvent control, Mean",8.88%
same,remaining activity at 15 µM,"15 µM, wild-type C. elegans, mean of Rep1-4, read-out: percent in vitro complex I activity relative to solvent control, Mean",2.59%
same,remaining activity at 37.5 µM,"37.5 µM, wild-type C. elegans, mean of Rep1-4, read-out: percent in vitro complex I activity relative to solvent control, Mean",2.95%
same,remaining activity at 75 µM,"75 µM, wild-type C. elegans, mean of Rep1-4, read-out: percent in vitro complex I activity relative to solvent control, Mean",6.38%
same,activity at 0.0001 µM,,95.7%
same,activity at 0.0005 µM,,95.4%
same,activity at 0.001 µM,,95.9%
same,activity at 0.0025 µM,,100%
same,activity at 0.005 µM,,93.4%
same,activity at 0.013 µM,,96.2%
same,activity at 0.025 µM,,94.4%
same,activity at 0.063 µM,,81.6%
same,activity at 0.125 µM,,64.9%
same,activity at 0.313 µM,,47.4%
same,activity at 0.625 µM,,32.7%
same,activity at 1.5 µM,,15.5%
same,activity at 3 µM,,8.88%
same,activity at 15 µM,,2.59%
same,activity at 37.5 µM,,2.95%
same,activity at 75 µM,,6.38%
same,IC50,[1],270 nM
same,Log IC50 C. elegans complex I,,-0.57 µM
same,IC50,[4],270 nM
Cc1ccc(SCCCn2cnc3ccccc32)cc1 [Compound 7926035],activity at 0.0001 µM,,90.2%
same,activity at 0.0005 µM,,95.5%
same,activity at 0.001 µM,,88.3%
same,activity at 0.0025 µM,,100%
same,activity at 0.005 µM,,101%
same,activity at 0.013 µM,,96.9%
same,activity at 0.025 µM,,95.3%
same,activity at 0.063 µM,,85.5%
same,activity at 0.125 µM,,96.1%
same,activity at 0.313 µM,,69.9%
same,activity at 0.625 µM,,33.2%
same,activity at 1.5 µM,,33.2%
same,activity at 3 µM,,8.58%
same,activity at 15 µM,,3.26%
same,activity at 37.5 µM,,1.04%
same,activity at 75 µM,,3.35%
same,IC50,[1],540 nM
same,Log IC50 C. elegans complex I,,-0.27 µM
same,IC50,[4],540 nM
CC(C)Oc1cccc(OCCn2cnc3ccccc32)c1 [Compound 7926496],activity at 0.0001 µM,,80%
same,activity at 0.0005 µM,,92.9%
same,activity at 0.001 µM,,87.5%
same,activity at 0.0025 µM,,88.5%
same,activity at 0.005 µM,,89.3%
same,activity at 0.013 µM,,88.3%
same,activity at 0.025 µM,,81.7%
same,activity at 0.063 µM,,79.5%
same,activity at 0.125 µM,,81.6%
same,activity at 0.313 µM,,76.9%
same,activity at 0.625 µM,,83.9%
same,activity at 1.5 µM,,76.4%
same,activity at 3 µM,,65%
same,activity at 15 µM,,17.8%
same,activity at 37.5 µM,,0.13%
same,activity at 75 µM,,0%
same,IC50,[1],6200 nM
same,Log IC50 C. elegans complex I,,0.79 µM
same,IC50,[2],6200 nM
